Experiments:
[1] = test system: patients after bariatric surgery with post-prandial hypoglycaemia; test: Follow up: off-label therapy with empagliflozin after the study; format: in vivo, human; settings: six patients
Excerpt: Two trial participants were continued to be treated, and four more patients were initiated on off-label therapy with empagliflozin after completion of the study.

[2] = target: T1, sodium glucose co-transporter 2 (SGLT2) (Homo sapiens, UniProt P31639); settings: cited from earlier work
T1 construct: SGLT2 is predominantly expressed in the proximal tubule of the kidney; host or cells: endogenous transporter of the kidney proximal tubule (in vivo, patients)
T1 sequence (P31639 1-672): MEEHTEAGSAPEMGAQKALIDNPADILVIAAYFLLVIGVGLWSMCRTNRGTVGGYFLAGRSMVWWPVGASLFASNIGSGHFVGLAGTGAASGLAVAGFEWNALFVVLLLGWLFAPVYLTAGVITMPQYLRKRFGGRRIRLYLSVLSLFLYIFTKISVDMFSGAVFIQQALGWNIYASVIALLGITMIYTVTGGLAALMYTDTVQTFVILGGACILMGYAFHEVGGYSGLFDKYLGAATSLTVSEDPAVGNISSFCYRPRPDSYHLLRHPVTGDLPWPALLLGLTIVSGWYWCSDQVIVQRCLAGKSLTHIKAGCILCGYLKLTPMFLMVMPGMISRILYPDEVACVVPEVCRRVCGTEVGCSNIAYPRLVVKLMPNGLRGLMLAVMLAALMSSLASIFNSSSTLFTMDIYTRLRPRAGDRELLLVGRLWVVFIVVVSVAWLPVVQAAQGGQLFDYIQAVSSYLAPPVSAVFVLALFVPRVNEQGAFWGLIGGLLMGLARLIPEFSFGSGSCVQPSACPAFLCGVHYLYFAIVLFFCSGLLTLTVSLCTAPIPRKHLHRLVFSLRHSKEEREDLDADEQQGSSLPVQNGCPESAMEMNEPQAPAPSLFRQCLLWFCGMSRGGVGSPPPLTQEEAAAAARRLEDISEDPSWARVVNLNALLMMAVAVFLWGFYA

[3] = cited from earlier work
[4] = test system: patients after bariatric surgery with post-prandial hypoglycaemia; test: Clinical symptom scores during mixed-meal test (Edinburgh Hypoglycemia Scale, Sigstad Score, Stanford Sleepiness Scale); format: in vivo, human; set-up: key to Edinburgh Hypoglycemia Scale score, timepoint 180 min / Edinburgh Hypoglycemia Scale score, timepoint −120 min / Edinburgh Hypoglycemia Scale score, timepoint 0 min / Edinburgh Hypoglycemia Scale score, timepoint 60 min / Edinburgh Hypoglycemia Scale score, timepoint 90 min / Edinburgh Hypoglycemia Scale score, timepoint 120 min / Edinburgh Hypoglycemia Scale score, timepoint 150 min: 0 (=no symptoms); 3 (=severe symptoms); a = sweating; b = palpitations; c = shaking; d = hunger; e = confusion; f = drowsiness; g = odd behaviour; h = speech difficulty; i = incoordination; settings: for Edinburgh Hypoglycemia Scale score, timepoint 0 min / Edinburgh Hypoglycemia Scale score, timepoint 60 min / Edinburgh Hypoglycemia Scale score, timepoint 90 min / Edinburgh Hypoglycemia Scale score, timepoint 120 min / Edinburgh Hypoglycemia Scale score, timepoint 150 min / Edinburgh Hypoglycemia Scale score, timepoint 180 min / Edinburgh Hypoglycemia Scale score, timepoint −120 min: per patient and visit; for Edinburgh Hypoglycemia Scale score, timepoint 60 min: 60 min after meal; for Edinburgh Hypoglycemia Scale score, timepoint 90 min: 90 min after meal; for Edinburgh Hypoglycemia Scale score, timepoint 120 min: 120 min after meal; for Edinburgh Hypoglycemia Scale score, timepoint 150 min: 150 min after meal; for Edinburgh Hypoglycemia Scale score, timepoint 180 min: 180 min after meal; for model coefficient (treatment vs placebo) for occurrence of Edinburgh composite score ≥6: headed FIG. 11a, generalized linear additive mixed effect model; for Edinburgh Hypoglycemia Scale score, timepoint −120 min: −120 min relative to meal (time of oral dosing)
Experimental: The primary outcome in this study is the change of post-prandial hypoglycaemia after treatment with empagliflozin (Jardiance®) or anakinra (Kineret®) compared to placebo. This was assessed by blood glucose measurements (capillary POCT measurements and plasma glucose) as well as clinical scoring systems (Edinburgh Hypoglycaemia Scale (Deary et al. Diabetologia 1993; 36(8): 771-7), Mixed-Meal-Test (Wiesli et al. Eur J Endocrinol 2005; 152(4): 605-10.) Stanford sleepiness scale).
(§1) The secondary objectives are to evaluate whether treatment of empagliflozin (Jardiance®) or anakinra (Kineret®) have effects on the following aspects: • level of insulin secretion and sensitivity • levels of GLP-1, glucagon and C-peptide • levels of IL-6; IL-1Ra, CRP • scores in Edinburgh Hypoglycaemia Scale (clinical score for assessment of hypoglycemia), Stanford Sleepiness Scale (clinical score of assessment of sleepiness) as well as Sigstad Score (clinical score for early and late dumping symptoms) • Length of time and amount of glucose needed for restoring normoglycemia.
Statistical analysis for this proof-of-concept translational clinical trial was done on a per-protocol basis. Sample size was based on practical considerations due to the lack of pre-existing data for this intervention. All analyses are to be considered exploratory. Analysis of continuous dependent outcome variables (e.g. glucose, insulin, c-peptide, GLP-1, glucagon, insulin secretion index and sensitivity, IL-1p, IL-6, IL-8, TNFα), was done using linear mixed effect models fit by maximum likelihood. Analysis of the binary dependent outcome variables occurrence of severe hypoglycemia requiring glucose rescue and occurrence of composite score ≥6 on the Edinburgh Hypoglycemia Scale was done using a generalized linear additive mixed effect model fit by maximum likelihood (Laplace approximation). Models were fit including fixed effects for categorical variables such as gender, the occurrence of hypoglycemia, treatment and in case of values measured in cell culture supernatants, activation status (non-stimulated, LPS-simulated), as well as the continuous variables time and BMI as indicated. A random-effect for patient was equally included (random by-subject intercepts, fixed slopes). Models were computed using the R “Ime4” and “gamm4” packages. • Individual models were visually assessed for the presence of heteroscedasticity, collinearity and normality of residuals. […] For visual representation, log-transformed outcome values were back-transformed to their initial values.

[5] = Serum IL-1Ra level after anakinra injection; format: in vivo, human; settings: average; 100 mg s.c.; increased from an average of 272 pg/ml
Excerpt: as §1
Individual body weights remained stable throughout the study period. […] Leukocyte and CRP levels were not elevated and remained stable throughout the trial.

[6] = subcutaneous administration; cited from earlier work
[7] = cited from earlier work; remark: listed apart in the source

## OC[C@H]1O[C@@H](c2ccc(Cl)c(Cc3ccc(O[C@H]4CCOC4)cc3)c2)[C@H](O)[C@@H](O)[C@@H]1O [empagliflozin]
[1]
  efficacy and tolerability more than half a year after initiating off-label therapy: still effective and well tolerated by all patients
[1]; empagliflozin after completion of the study
  frequency of hypoglycemic episodes, off-label therapy: lower frequency of hypoglycemic episodes in each of the six patients
[2]; after oral administration
  duration of glucosuria: at least 24 hours
[2]; in vivo
  glucosuria: 64 g glucose per day
[3]
  mean Plasma-AUC in the steady state: 1870 nM·h
[4]
  Edinburgh Hypoglycemia Scale score, timepoint 0 min: 0
  Edinburgh Hypoglycemia Scale score, timepoint 60 min: 0
  Edinburgh Hypoglycemia Scale score, timepoint 90 min: 0
  Edinburgh Hypoglycemia Scale score, timepoint 120 min: 0
  Edinburgh Hypoglycemia Scale score, timepoint 150 min: 0
  Edinburgh Hypoglycemia Scale score, timepoint 180 min: 0
  model coefficient (treatment vs placebo) for occurrence of Edinburgh composite score ≥6: −2.429
  Edinburgh Hypoglycemia Scale score, timepoint −120 min: 0

## anakinra: CAS NO 143090-92-0; recombinant, non-glycosylated form of the human interleukin-1 receptor antagonist (IL-1 Ra), 153 amino acids
[5]
  serum levels of IL-1Ra after injection of anakinra: 0.043836 µg/mL
[6]
  time of maximum plasma concentration: 4 h
[7]; share of patients
  reduction of WBC/ANC: 2.4%
[7]; share of subjects treated
  mild and transient local injection reactions: 20-50%
[4]
  Edinburgh Hypoglycemia Scale score, timepoint 0 min: 0
  Edinburgh Hypoglycemia Scale score, timepoint 60 min: 0
  Edinburgh Hypoglycemia Scale score, timepoint 90 min: 0
  Edinburgh Hypoglycemia Scale score, timepoint 120 min: 0
  Edinburgh Hypoglycemia Scale score, timepoint 150 min: 0
  Edinburgh Hypoglycemia Scale score, timepoint 180 min: 0
  model coefficient (treatment vs placebo) for occurrence of Edinburgh composite score ≥6: −2.429
  Edinburgh Hypoglycemia Scale score, timepoint −120 min: 0

From patent US20220088144A1, “SGLT-2 INHIBITORS OR IL-1R ANTAGONISTS FOR REDUCTION OF HYPOGLYCAEMIA AFTER BARIATRIC SURGERY” (UNIVERSITÄTSSPITAL BASEL, priority 2019, published 2022)
